From US20180318311A1, “TRICYCLIC 2-QUINOLINONES AS ANTIBACTERIALS” (priority 2017, published 2018)
≈ marks a conversion by molar mass, not a printed value. Read-outs that look alike come from different tables or passages of the source.

Columns and labels:
Assay type in all cases: cell-based
[1] = system: S. aureus ATCC 49951 (NB01006); assay: MIC by broth microdilution, S. aureus NB01006; details: Staphylococcus aureus, ATCC49951, CAMHB, 35° C., 20 hours, read-out: Antibacterial activity (MIC) NB01006
Outline: (§1)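 CLSI broth microdilution in cation-adjusted Mueller-Hinton broth, inoculum about 5×10^5 CFU/mL from overnight MHA cultures. Two-fold compound dilutions in 1% final DMSO; plates incubated 20 h at 35° C in ambient air. MIC (μg/mL) was the lowest concentration preventing visible growth, checked by OD600 and visual inspection.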

[2] = system: S. aureus NB01006-AVR005, gyrA (S84L), grlA (580F) and grlB (E471K); assay: microbe, parasite or virus in culture; details: Staphylococcus aureus, 20 h, read-out: Antibacterial activity (MIC) NB01006-AVR005
Outline: as §1

[3] = system: S. aureus NB01080 fluoroquinolone-resistant clinical isolate; assay: MIC by broth microdilution, S. aureus NB01080; details: Staphylococcus aureus, CAMHB, 35° C., 20 hours, read-out: Antibacterial activity (MIC) NB01080
Outline: as §1

[4] = system: E. faecalis ATCC 29212 (NB04001); assay: MIC by broth microdilution, E. faecalis NB04001; details: Enterococcus faecalis, ATCC29212, CAMHB, 35° C., 20 hours, read-out: Antibacterial activity (MIC) NB04001
Outline: as §1

[5] = system: S. pneumoniae ATCC 25922 (NB07001); assay: MIC by broth microdilution, S. pneumoniae NB07001; details: Streptococcus pneumoniae, read-out: Antibacterial activity (MIC) NB07001
Outline: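 CLSI broth microdilution in CAMHB, inoculum ~5×10^5 CFU/mL, two-fold compound dilutions at 1% final DMSO. Plates incubated 20 h at 35°C in ambient air; MIC (μg/mL) is the lowest concentration preventing visible growth, confirmed by OD600.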

[6] = system: E. coli ATCC 25922 (NB27001); assay: MIC by broth microdilution, E. coli NB27001; details: Escherichia coli, ATCC25922, CAMHB, 35° C., 20 hours, read-out: Antibacterial activity (MIC) NB27001
Outline: as §1

[7] = system: P. aeruginosa NB52019, wild-type PAO1 strain; assay: MIC by broth microdilution, P. aeruginosa NB52019; details: Pseudomonas aeruginosa, CAMHB, 35° C., 20 hours, read-out: Antibacterial activity (MIC) NB52019
Outline: as §1

[8] = ATCC25922, S. pneumoniae, CAMHB supplemented with 5% lysed horse blood, 35° C., 20 hours

Row | SMILES | MIC [1] | MIC [2] | MIC [3] | MIC [4] | MIC ([5]; ATCC25922, 20 h) | MIC [6] | MIC [7] | MIC [5, 8]
1 | C[C@H]1COc2c(N3CCC4(CCCN4C)CC3)c(F)cc3cc(C(=O)O)c(=O)n1c23 [Example 1.57, (S)-9-fluoro-3-methyl-10-(1-methyl-1,8-diazaspiro[4.5]decan-8-yl)-5-oxo-2,3-dihydro-5H-[1,4]oxazino[2,3,4-ij]quinoline-6-carboxylic acid] | > 32 mg/L | > 32 mg/L | > 32 mg/L | > 32 mg/L | > 32 mg/L | 1 to 32 mg/L (≈ 2.41 to 77 µM) | > 32 mg/L | 
2 | C[C@@H]1CN(c2c(F)cc3cc(C(=O)O)c(=O)n4c3c2OC[C@@H]4C)C[C@@]1(C)CN [Example 1.58, (S)-10-((3R,4S)-3-(aminomethyl)-3,4-dimethylpyrrolidin-1-yl)-9-fluoro-3-methyl-5-oxo-2,3-dihydro-5H-[1,4]oxazino[2,3,4-ij]quinoline-6-carboxylic acid] | < 1 mg/L | 1 to 32 mg/L (≈ 2.57 to 82.2 µM) | 1 to 32 mg/L (≈ 2.57 to 82.2 µM) | 1 to 32 mg/L (≈ 2.57 to 82.2 µM) | 1 to 32 mg/L (≈ 2.57 to 82.2 µM) | 1 to 32 mg/L (≈ 2.57 to 82.2 µM) | > 32 mg/L | 
3 | C[C@H]1COc2c(N3CC4=C(CNC4)C3)c(F)cc3cc(C(=O)O)c(=O)n1c23 [Example 1.59, (S)-9-fluoro-3-methyl-5-oxo-10-(3,4,5,6-tetrahydropyrrolo[3,4-c]pyrrol-2(1H)-yl)-2,3-dihydro-5H-[1,4]oxazino[2,3,4-ij]quinoline-6-carboxylic acid] | 1 to 32 mg/L (≈ 2.69 to 86.2 µM) | > 32 mg/L | 1 to 32 mg/L (≈ 2.69 to 86.2 µM) | > 32 mg/L | 1 to 32 mg/L (≈ 2.69 to 86.2 µM) | 1 to 32 mg/L (≈ 2.69 to 86.2 µM) | > 32 mg/L | 
4 | C[C@H]1COc2c(N3CCN4CCC3C4)c(F)cc3cc(C(=O)O)c(=O)n1c23 (stereo partly drawn) [Example 1.60, (3S)-10-(1,4-diazabicyclo[3.2.1]octan-4-yl)-9-fluoro-3-methyl-5-oxo-2,3-dihydro-5H-[1,4]oxazino[2,3,4-ij]quinoline-6-carboxylic acid] | 1 to 32 mg/L (≈ 2.68 to 85.7 µM) | > 32 mg/L | > 32 mg/L | 1 to 32 mg/L (≈ 2.68 to 85.7 µM) | 1 to 32 mg/L (≈ 2.68 to 85.7 µM) | 1 to 32 mg/L (≈ 2.68 to 85.7 µM) | 1 to 32 mg/L (≈ 2.68 to 85.7 µM) | 
5 | C[C@H]1COc2c(N3C4CCC3CC4)c(F)cc3cc(C(=O)O)c(=O)n1c23 [Example 1.61, (S)-10-(7-azabicyclo[2.2.1]heptan-7-yl)-9-fluoro-3-methyl-5-oxo-2,3-dihydro-5H-[1,4]oxazino[2,3,4-ij]quinoline-6-carboxylic acid] | > 32 mg/L | > 32 mg/L | > 32 mg/L | > 32 mg/L |  | > 32 mg/L | > 32 mg/L | > 32 mg/L
6 | C[C@H]1COc2c(N3CCN4C5CCC(C5)C4C3)c(F)cc3cc(C(=O)O)c(=O)n1c23 (stereo partly drawn) [Example 1.63, (3S)-9-fluoro-3-methyl-10-(octahydro-2H-6,9-methanopyrido[1,2-a]pyrazin-2-yl)-5-oxo-2,3-dihydro-5H-[1,4]oxazino[2,3,4-ij]quinoline-6-carboxylic acid] | > 32 mg/L | > 32 mg/L | > 32 mg/L | > 32 mg/L |  | 1 to 32 mg/L (≈ 2.42 to 77.4 µM) | > 32 mg/L | > 32 mg/L
7 | C[C@H]1COc2c(N3CC4CCCC(C3)N4)c(F)cc3cc(C(=O)O)c(=O)n1c23 [Example 1.66, (3S)-10-(3,9-diazabicyclo[3.3.1]nonan-3-yl)-9-fluoro-3-methyl-5-oxo-2,3-dihydro-5H-[1,4]oxazino[2,3,4-ij]quinoline-6-carboxylic acid] | 1 to 32 mg/L (≈ 2.58 to 82.6 µM) | > 32 mg/L | > 32 mg/L | > 32 mg/L |  | 1 to 32 mg/L (≈ 2.58 to 82.6 µM) | > 32 mg/L | 1 to 32 mg/L (≈ 2.58 to 82.6 µM)
8 | C[C@H]1COc2c(N3CCC(N)(CO)CC3)c(F)cc3cc(C(=O)O)c(=O)n1c23 [Example 1.67, (S)-10-(4-amino-4-(hydroxymethyl)piperidin-1-yl)-9-fluoro-3-methyl-5-oxo-2,3-dihydro-5H-[1,4]oxazino[2,3,4-ij]quinoline-6-carboxylic acid] | > 32 mg/L | > 32 mg/L | > 32 mg/L | > 32 mg/L | > 32 mg/L | > 32 mg/L | > 32 mg/L | 
9 | C[C@H]1COc2c(N3CCC(O)(CN)CC3)c(F)cc3cc(C(=O)O)c(=O)n1c23 [Example 1.68, (S)-10-(4-(aminomethyl)-4-hydroxypiperidin-1-yl)-9-fluoro-3-methyl-5-oxo-2,3-dihydro-5H-[1,4]oxazino[2,3,4-ij]quinoline-6-carboxylic acid] | > 32 mg/L | > 32 mg/L | > 32 mg/L | > 32 mg/L | > 32 mg/L | > 32 mg/L | > 32 mg/L | 
10 | C[C@H]1COc2c(N3CCN4CC(F)(F)C[C@H]4C3)c(F)cc3cc(C(=O)O)c(=O)n1c23 [Example 1.72, (S)-10-((S)-7,7-difluorohexahydropyrrolo [1,2-a]pyrazin-2(1H)-yl)-9-fluoro-3-methyl-5-oxo-2,3-dihydro-5H-[1,4]oxazino[2,3,4-ij]quinoline-6-carboxylic acid] | 1 to 32 mg/L (≈ 2.36 to 75.6 µM) | > 32 mg/L | > 32 mg/L | > 32 mg/L | > 32 mg/L | > 32 mg/L | > 32 mg/L | 
11 | C[C@H]1COc2c(N3CCN4C[C@@H](F)C[C@H]4C3)c(F)cc3cc(C(=O)O)c(=O)n1c23 [Example 1.73, (S)-9-fluoro-10-((7S,8aS)-7-fluorohexahydropyrrolo[1,2-a]pyrazin-2(1H)-yl)-3-methyl-5-oxo-2,3-dihydro-5H-[1,4]oxazino[2,3,4-ij]quinoline-6-carboxylic acid] | 1 to 32 mg/L (≈ 2.47 to 78.9 µM) | > 32 mg/L | > 32 mg/L | > 32 mg/L | > 32 mg/L | 1 to 32 mg/L (≈ 2.47 to 78.9 µM) | > 32 mg/L | 
12 | C[C@H]1COc2c(N3C[C@H](F)[C@@H](C4(N)CC4)C3)c(F)cc3cc(C(=O)O)c(=O)n1c23 [Example 1.74, (S)-10-((3R,4R)-3-(1-aminocyclopropyl)-4-fluoropyrrolidin-1-yl)-9-fluoro-3-methyl-5-oxo-2,3-dihydro-5H-[1,4]oxazino[2,3,4-ij]quinoline-6-carboxylic acid] | < 1 mg/L | 1 to 32 mg/L (≈ 2.47 to 78.9 µM) | 1 to 32 mg/L (≈ 2.47 to 78.9 µM) | 1 to 32 mg/L (≈ 2.47 to 78.9 µM) | < 1 mg/L | 1 to 32 mg/L (≈ 2.47 to 78.9 µM) | > 32 mg/L | 
13 | C[C@H]1COc2c(N3CC[C@@H](C4(N)CCCC4)C3)c(F)cc3cc(C(=O)O)c(=O)n1c23 [Example 1.75, (S)-10-((R)-3-(1-aminocyclopentyl)pyrrolidin-1-yl)-9-fluoro-3-methyl-5-oxo-2,3-dihydro-5H-[1,4]oxazino[2,3,4-ij]quinoline-6-carboxylic acid] | < 1 mg/L | 1 to 32 mg/L (≈ 2.41 to 77 µM) | 1 to 32 mg/L (≈ 2.41 to 77 µM) | 1 to 32 mg/L (≈ 2.41 to 77 µM) | < 1 mg/L | 1 to 32 mg/L (≈ 2.41 to 77 µM) | > 32 mg/L | 
14 | C[C@H]1COc2c(N3CC(CC4(N)CC4)C3)c(F)cc3cc(C(=O)O)c(=O)n1c23 [Example 1.76, (S)-10-(3-((1-aminocyclopropyl)methyl)azetidin-1-yl)-9-fluoro-3-methyl-5-oxo-2,3-dihydro-5H-[1,4]oxazino[2,3,4-ij]quinoline-6-carboxylic acid] | > 32 mg/L | > 32 mg/L | > 32 mg/L | > 32 mg/L | > 32 mg/L | > 32 mg/L | > 32 mg/L | 
15 | C[C@H]1COc2c(N3C[C@@H](CO)[C@@H](CO)C3)c(F)cc3cc(C(=O)O)c(=O)n1c23 [Example 1.79, (S)-10-((3R,4S)-3,4-bis(hydroxymethyl)pyrrolidin-1-yl)-9-fluoro-3-methyl-5-oxo-2,3-dihydro-5H-[1,4]oxazino[2,3,4-ij]quinoline-6-carboxylic acid] | 1 to 32 mg/L (≈ 2.55 to 81.6 µM) | > 32 mg/L | > 32 mg/L | > 32 mg/L | > 32 mg/L | > 32 mg/L | > 32 mg/L | 
16 | NC1([C@@H]2CCN(c3c(F)cc4cc(C(=O)O)c(=O)n5c4c3OC[C@@H]5CO)C2)CC1.O=CO [Example 2, (S)-10-((R)-3-(1-aminocyclopropyl)pyrrolidin-1-yl)-9-fluoro-3-(hydroxymethyl)-5-oxo-2,3-dihydro-5H-[1,4]oxazino[2,3,4-ij]quinoline-6-carboxylic acid formate salt] | > 32 mg/L | > 32 mg/L | > 32 mg/L | > 32 mg/L |  | > 32 mg/L | > 32 mg/L | > 32 mg/L
17 | COC[C@H]1COc2c(N3CC[C@@H](C4(N)CC4)C3)c(F)cc3cc(C(=O)O)c(=O)n1c23.O=CO [Example 3, (S)-10-((R)-3-(1-aminocyclopropyl)pyrrolidin-1-yl)-9-fluoro-3-(methoxymethyl)-5-oxo-2,3-dihydro-5H-[1,4]oxazino[2,3,4-ij]quinoline-6-carboxylic acid formate salt] | > 32 mg/L | > 32 mg/L | > 32 mg/L | > 32 mg/L |  | > 32 mg/L | > 32 mg/L | > 32 mg/L
